Data as given in patent US12103915B2, “TEAD inhibitors and methods of uses thereof” (Insilico Medicine IP Limited, priority 2022, dated 2024).
Read-outs that look alike come from different tables or passages of the source.

Columns and labels:
NCI-H226 cells = assay: Cell growth assay (CellTiter-Glo); assay type: cell-based, human; conditions: 7 days treatment, CellTiter-Glo luminescence, read-out: H226 CTG IC50
Protocol: Example A: Cell Growth Assay
CellTiter-Glo reagent (CTG reagent, Promega, G7573).
[…] Also seeding an extra plate as Day 0 control measurement. The microplates were incubated at 37° C., 5% CO2 overnight.
Compounds were 3-fold serial diluted in DMSO and final top-concentration was […], 10 points. 0.3% DMSO as vehicle control. In addition, […] of CTG reagent was added into the extra plate and incubated at room temperature for 30 minutes and detected luminescence signals as Day 0 control by using EnVision (PerkinElmer, 2104 Mutilabel Reader).
Incubated other compounds treated plates at 37° C. for another 7 days and […] of CTG reagent was added into the plates and incubated at room temperature for 30 minutes and detected luminescence signals.
Day 0 luminescence signals were used as negative control or baseline. • Signalday0=average luminescence signals of Day 0 control cells. • Signalblank control=average luminescence signals of blank control. • SignalDMSO vehicle control=average luminescence signals of Day 7 DMSO vehicle control cells. • Signalcpds treatment=luminescence signals of Day 7 compounds treatment cells. Inhibition %=1−(Signalcpds treatment−Signalblank control)/(SignalDMSO vehicle control−Signalblank control)*100.
(Inhibitory concentration 50% (IC50) and maximum inhibition % were calculated using dose response curves.

TEAD1 = TEAD1 (Homo sapiens, UniProt P28347); assay: Thermal shift assay TEAD1; assay type: binding
Protocol: (§1) Example B: Thermal Shift Assay
(§2) 1) Prepare a fresh dilution of Protein Thermal Shift™ Dye (Applied Biosystems, 1000×) to 8× by […].
(§3) 2) To ensure the same DMSO concentration, the compounds were diluted as follows: Prepare 10 mM stock solution of compounds;
(§4) The final DMSO concentration was 0.1%
(§5) 10 μM: Diluting stock solution to 100 μM by using PBS.
(§6) 1 μM: Diluting stock solution to 1 mM by using DMSO, then dilute to 10 μM by using PBS.
(§7) TEAD1: the stock concentration was 2.9 mg/ml; the final concentration was 0.2 mg/ml. TEAD2: the stock concentration was 1.8 mg/ml; the final concentration was 0.08 mg/ml.
(§8) 4) Place the appropriate reaction plate or tubes on ice, then prepare the protein melt reactions:
(§9) 5) Pipet each reaction up and down 10 times to mix well.
(§10) 6) Seal the plate with MicroAmp™ Optical Adhesive Film, spin it at 1000 rpm for 1 minute.
(§11) 7) Set up and run on the qPCR instrument.
(§12) Using thermal Shift™ Software v1.3 to analysis.

TEAD4 = TEAD4 (Homo sapiens, UniProt Q15561); assay: Thermal shift assay TEAD4; assay type: binding
Protocol: as §1, §2, §3, §4, §5, §6
TEAD4: the stock concentration was 2.3 mg/ml; the final concentration was 0.1 mg/ml.
as §8, §9, §10, §11, §12

TEAD2 = TEAD2 (Homo sapiens, UniProt Q15562); assay: Thermal shift assay TEAD2; assay type: binding
Protocol: as §1, §2, §3, §4, §5, §6, §7, §8, §9, §10, §11, §12

TEAD3 = TEAD3 (Homo sapiens, UniProt Q99594); assay: Thermal shift assay TEAD3; assay type: binding
Protocol: as §1, §2, §3, §4, §5, §6
TEAD3: the stock concentration was 2.4 mg/ml; the final concentration was 0.1 mg/ml.
as §8, §9, §10, §11, §12

TEAD4, sequence (Q15561 whole entry, species assumed): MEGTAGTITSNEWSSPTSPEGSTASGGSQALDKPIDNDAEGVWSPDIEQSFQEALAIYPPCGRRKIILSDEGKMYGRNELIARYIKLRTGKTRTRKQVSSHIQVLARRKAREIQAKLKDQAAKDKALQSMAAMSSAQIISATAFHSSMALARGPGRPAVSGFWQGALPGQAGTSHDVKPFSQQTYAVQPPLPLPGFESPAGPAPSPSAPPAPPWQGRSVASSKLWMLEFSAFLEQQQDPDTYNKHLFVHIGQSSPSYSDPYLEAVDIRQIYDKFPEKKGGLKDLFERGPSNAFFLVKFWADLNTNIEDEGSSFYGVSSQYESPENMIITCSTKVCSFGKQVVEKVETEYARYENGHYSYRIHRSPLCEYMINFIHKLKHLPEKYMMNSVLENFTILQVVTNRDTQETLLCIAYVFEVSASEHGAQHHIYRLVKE
TEAD1, sequence (P28347 whole entry, species assumed): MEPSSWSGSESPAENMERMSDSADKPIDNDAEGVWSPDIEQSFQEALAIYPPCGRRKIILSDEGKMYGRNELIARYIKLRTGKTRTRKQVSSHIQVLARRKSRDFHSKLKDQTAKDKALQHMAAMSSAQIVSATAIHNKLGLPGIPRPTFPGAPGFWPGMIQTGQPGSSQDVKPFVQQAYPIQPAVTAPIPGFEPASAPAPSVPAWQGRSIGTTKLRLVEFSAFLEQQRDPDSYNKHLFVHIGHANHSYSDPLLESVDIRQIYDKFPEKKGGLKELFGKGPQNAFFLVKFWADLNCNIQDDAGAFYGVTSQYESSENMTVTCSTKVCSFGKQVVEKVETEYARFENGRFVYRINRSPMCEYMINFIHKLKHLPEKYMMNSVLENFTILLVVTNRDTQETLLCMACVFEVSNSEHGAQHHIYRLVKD
TEAD2, sequence (Q15562 whole entry, species assumed): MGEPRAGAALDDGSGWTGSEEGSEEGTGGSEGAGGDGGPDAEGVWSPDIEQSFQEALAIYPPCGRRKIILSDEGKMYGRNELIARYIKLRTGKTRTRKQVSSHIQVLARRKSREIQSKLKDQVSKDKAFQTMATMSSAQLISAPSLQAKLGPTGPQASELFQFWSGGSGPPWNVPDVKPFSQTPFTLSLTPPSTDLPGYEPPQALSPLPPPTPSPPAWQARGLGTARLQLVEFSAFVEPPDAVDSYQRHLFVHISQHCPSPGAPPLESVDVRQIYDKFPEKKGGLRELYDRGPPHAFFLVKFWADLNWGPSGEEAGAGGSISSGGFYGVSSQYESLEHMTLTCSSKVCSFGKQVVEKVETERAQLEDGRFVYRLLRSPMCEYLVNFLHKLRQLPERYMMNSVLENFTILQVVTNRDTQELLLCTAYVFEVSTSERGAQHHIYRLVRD
TEAD3, sequence (Q99594 whole entry, species assumed): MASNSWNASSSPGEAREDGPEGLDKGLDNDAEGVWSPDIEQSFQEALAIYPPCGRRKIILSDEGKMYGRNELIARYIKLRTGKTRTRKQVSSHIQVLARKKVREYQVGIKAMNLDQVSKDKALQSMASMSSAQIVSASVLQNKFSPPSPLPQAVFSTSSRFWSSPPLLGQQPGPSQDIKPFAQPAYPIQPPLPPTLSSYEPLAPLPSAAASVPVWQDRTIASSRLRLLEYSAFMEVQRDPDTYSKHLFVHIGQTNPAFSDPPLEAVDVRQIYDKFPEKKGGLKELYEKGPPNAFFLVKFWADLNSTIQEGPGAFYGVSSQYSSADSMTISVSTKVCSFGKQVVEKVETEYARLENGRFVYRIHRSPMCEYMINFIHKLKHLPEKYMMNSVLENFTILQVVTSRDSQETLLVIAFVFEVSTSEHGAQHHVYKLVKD

Row | Structure (SMILES) | IC50 (NCI-H226 cells; Homo sapiens, NCI-H226, 168 h) [nM] | TEAD1 ΔTm (TEAD1) [°C] | TEAD4 ΔTm (TEAD4) [°C] | TEAD2 ΔTm (TEAD2) [°C] | TEAD3 ΔTm (TEAD3) [°C] | IC50 (NCI-H226 cells) [nM]
1 | O=C(O)[C@@H]1CC1c1cc(-c2ccc(C(F)(F)F)cc2)cc2cn[nH]c12 (mixture of isomers) [Example 1] | 1000 to 30000 | – | – | – | – | –
2 | Cn1ncc2cc(-c3ccc(C(F)(F)F)cc3)cc(C3C[C@H]3C(=O)O)c21 (mixture of isomers) [Example 3] | 1000 to 30000 | – | – | – | – | –
3 | O=C(O)[C@@H]1CC1c1cc(-c2ccc(C(F)(F)F)cc2)cc2cn(-c3cccnc3)nc12 (mixture of isomers) [Example 4] | 1000 to 30000 | 5 | 4.2 | 1.6 | 1.1 | –
4 | O=C(O)[C@@H]1CC1c1cc(-c2ccc(C(F)(F)F)cc2)cc2[nH]ncc12 (mixture of isomers) [Example 5] | 1000 to 30000 | – | – | – | – | –
5 | Cn1cc2c(C3C[C@H]3C(=O)O)cc(-c3ccc(C(F)(F)F)cc3)cc2n1 (mixture of isomers) [Example 6] | 100 to 500 | – | – | – | – | –
6 | Cn1ncc2c(C3C[C@H]3C(=O)O)cc(-c3ccc(C(F)(F)F)cc3)cc21 (mixture of isomers) [Example 7] | – | 5.7 | 7.2 | 5.7 | 2 | 100 to 500
7 | Cn1ncc2c(C3C[C@H]3C(=O)O)cc(-c3ccc(C(F)(F)F)cc3)cc21 (mixture of isomers) [Example 8] | – | – | – | – | – | 1000 to 30000
8 | O=C(O)[C@@H]1CC1c1cc(-c2ccc(C(F)(F)F)cc2)cc2c1cnn2C(F)F (mixture of isomers) [Example 9] | 100 to 500 | 5.8 | 5.6 | 4.1 | 1.2 | –
9 | Cn1ncc2c(C3C[C@H]3C(=O)O)cc(-c3ccc(OC(F)(F)F)cc3)cc21 (mixture of isomers) [Example 10] | 100 to 500 | 6 | 7.3 | 7.7 | 2 | –
10 | Cn1cc2cc(-c3ccc(OC(F)(F)F)cc3)cc(C3C[C@H]3C(=O)O)c2n1 (mixture of isomers) [Example 12] | < 100 | 7.7 | 11.5 | 9.4 | 2.3 | –
11 | O=C(O)[C@@H]1CC1c1cc(-c2ccc(C(F)(F)F)cc2)cc2cccnc12 (mixture of isomers) [Example 13] | < 100 | 7.7 | 8.3 | 6.6 | 1.8 | –
12 | O=C(O)[C@@H]1CC1c1cc(-c2ccc(C(F)(F)F)cc2)cc2scnc12 (mixture of isomers) [Example 14] | 1000 to 30000 | 0.4 | 0.2 | 0.3 | 0 | –
13 | CN1Cc2cc(-c3ccc(C(F)(F)F)cc3)cc(C3C[C@H]3C(=O)O)c2C1=O (mixture of isomers) [Example 15] | 100 to 500 | 5 | 3.7 | 5.1 | 1.2 | –
14 | Cn1ncc2c(C3C[C@H]3C(=O)O)cc(OCc3ccc(C(F)(F)F)cc3)cc21 (mixture of isomers) [Example 19] | 1000 to 30000 | 1.9 | 1.8 | 3.4 | 0.9 | –
15 | O=C(O)[C@@H]1CC1c1cn(-c2ccc(C(F)(F)F)cc2)c2cccnc12 (mixture of isomers) [Example 20] | 100 to 500 | 3.8 | 5.9 | 6.8 | 3.2 | –
16 | Cc1ccc2c(c1)c(C1C[C@H]1C(=O)O)cn2-c1ccc(C(F)(F)F)cc1 (mixture of isomers) [Example 21] | < 100 | 11 | 9.3 | 6.7 | 5.2 | –
17 | CNC(=O)[C@@H]1CC1c1cc(-c2ccc(C(F)(F)F)cc2)cc2c1=NC(C)N=2 (mixture of isomers) [Example 22] | < 100 | 4.5 | 5.7 | 5.5 | 1.1 | –
18 | CCNC(=O)[C@@H]1CC1c1cc(-c2ccc(C(F)(F)F)cc2)cc2c1=NC(C)N=2 (mixture of isomers) [Example 23] | 100 to 500 | 4.7 | 6.5 | 3.5 | 0.7 | –
19 | Cn1ncc2c(C3C[C@H]3C(N)=O)cc(-c3ccc(C(F)(F)F)cc3)cc21 (mixture of isomers) [Example 25] | < 100 | 5.4 | 6.6 | 6.9 | 0.7 | –
20 | CN(C)C(=O)[C@@H]1CC1c1cc(-c2ccc(C(F)(F)F)cc2)cc2c1cnn2C (mixture of isomers) [Example 26] | 100 to 500 | 1.7 | 1.7 | 1.9 | 0.1 | –
21 | Cn1ncc2c([C@@H]3C[C@H]3C(=O)NCCO)cc(-c3ccc(C(F)(F)F)cc3)cc21 (racemic) [Example 29] | 500 to 1000 | – | – | – | – | –
22 | Cn1cc2cc(Oc3ccc(C(F)(F)F)cc3)cc([C@@H]3C[C@H]3C(=O)N3CC(O)C3)c2n1 (single isomer, unassigned) [Example 58a] | 1000 to 30000 | – | – | – | – | –
23 | C[C@H](C#N)NC(=O)[C@@H]1C[C@H]1c1cc(Oc2ccc(C(F)(F)F)cc2)cc2cn(C)nc12 (single isomer, unassigned) [Example 68] | < 100 | – | – | – | – | –
24 | Cc1cn2cc(Oc3ccc(C(F)(F)F)cc3)cc(C3C[C@H]3C(=O)N3CC(O)C3)c2n1 (single isomer, unassigned) [Example 85a] | 1000 to 30000 | – | – | – | – | –
25 | Cn1cc2cc(Oc3cc(F)ccc3C(F)(F)F)cc([C@@H]3C[C@H]3C(=O)N3CC(O)C3)c2n1 (single isomer, unassigned) [Example 133] | – | 1.1 | 4.9 | 8.5 | 0.3 | –
26 | Cn1cc2cc(Oc3ccc(C(F)(F)F)cc3)cc([C@@H]3C[C@H]3C(=O)N3CCC34CC(O)C4)c2n1 (single isomer, unassigned) [Example 136] | – | 7.1 | 10.3 | 12.4 | 1.7 | –
27 | Cn1cc2cc(Oc3cc(F)c(F)c(F)c3)cc([C@@H]3C[C@H]3C(=O)N3C[C@@H]4C[C@H]3C[C@@H]4O)c2n1 (single isomer, unassigned) [Example 138] | – | 4.2 | 6.4 | 6.8 | 2.3 | –
28 | C=C(CS(=O)(=O)NC)c1cc(-c2ccc(C(F)(F)F)cc2)cc2c1cnn2C [Example 43] | 1000 to 30000 | – | – | – | – | –
29 | CNS(=O)(=O)CCc1cc(N(C)c2ccc(C(F)(F)F)cc2)cc2cn(C)nc12 [Example 49] | – | 3.2 | 5.1 | 2.6 | 0.1 | –
